Results on 4 compounds are retold here after patent publication US9944607B2, “Thiohydantoin derivatives and uses thereof” (Whitehead Institute for Biomedical Research, priority 2012, dated 2018).

Where two headings read alike, the source gives them in different places.

In one assay the test system is C. glabrata (ATCC 2001). As to the kind of experiment: Secondary C. glabrata inhibition in glucose media (OD600). It counts as cell-based, Candida glabrata. The settings on record: Nakaseomyces glabratus.
Excerpt: (§1) Cell Lines. • Candida albicans CaCi-2; a drug-resistant clinical isolate was provided by the Whitehead Institute (Redding et al., Clin. Infect. Dis. 1994, 18(2):240-2). This strain was used for the primary assay. • Candida albicans CaCi-17; a strongly drug-resistant clinical isolate was provided by the Whitehead Institute (Redding et al., Clin. Infect. Dis. 1994, 18(2):240-2). This strain was used for the primary assay • Saccharyomyces cerevisiae W303-1a (ATCC 208352); a well-characterized Saccharomyces strain used for determination of glycolytic vs. respiratory metabolism, as well as in the mitochondrial disruption assay. • Candida glabrata (ATCC 2001); used for determination of glycolytic vs. respiratory metabolism. • NIH-3T3 mammalian fibroblasts (ATCC; CRL no.1658); used for mammalian toxicity assays. […]
(§2) Saccharomyces, while not a major human pathogen, is a useful lab model with well-developed genetic tools available. Candida glabrata is an increasingly prominent clinical problem for immune-compromised patients but with fewer genetic tools available with which to study it. These organisms can utilize alternative metabolic pathways to support growth and survival depending on the carbon source. By comparing the concentration-dependent inhibition of yeast growth in glycerol relative to glucose media, a quantitative assessment of a compound's ability to disrupt respiration can be determined. […].
(§3) Procedures • Use a Thermo Combi nL to dispense 20 μL/well of assay media into all wells. • Add 2 μL of Amphotericin B to control wells. • Pin 100 nL of test compound from compound plates into assay plates using a CyBi-Well pin tool. • Dispense 20 μL/well of culture into the assay media in all wells. • Incubate the plates in a humidified (90% humidity) Liconic incubator at 37° C. without agitation for 48 hours. • Shake plates briefly. • Read OD600 of wells on a standard plate reader as measure of relative fungal growth. Envision (Perkin Elmer) plate reader settings: Ex Photometric 600, Top read. Secondary Glucose Assay Protocol (AID 623971, 623967, 624013, 624025) Materials and Reagents
(§4) Clear, flat bottom, black 384-well plates (Corning, Catalog No. 3712BC; Lot No. 35808016); Amphotericin B (Sigma, Catalog no. A2411) 15 mM stock solution in DMSO; Pen/Strep (Gibco, Catalog No. 10378-016; Lot no21040170) 100× in PBS.
(§5) Synthetic defined growth medium. Complete Supplement Mixture; (Sunrise Science, Catalog No. 1001-100); Yeast Nitrogen Base without ammonium sulfate (MP Biomedicals, Catalog No. 4027-012); Glucose (Sigma, Catalog No. G7021). • Prepare medium by dissolving 0.79 g of Complete Supplement Mixture and 1.7 g of Yeast Nitrogen Base in 800 mL of water. • Add 20 g of glucose. Adjust final volume to 1000 mL. Filter sterilize.
(§6) Fungal Inoculum. Test Strains: C. glabrata (ATCC 2001) and Saccharomyces cerevisiae W303. • Inoculate […] of yeast from cryopreserved stock into a 250 mL shaker flask containing 20 mL of growth medium. Shake at 30° C. overnight (about 16 hours). • Read OD 600 of 1 mL of fungal culture in a cuvette using a standard optical density reader (Eppendorf BioPhotometer Plus), with growth medium as a background blank. • Dilute to desired volume of fungal inoculum to produce an OD600 reading of 0.005 (S. cerevisiae) or 0.004 (C. glabrata).
as §3, with “read. 4.5.” for “read.”, “Mitochondrial Disruption” for “Glucose”, “Assay” for “Assay Protocol”, “No. 624062” for “623971, 623967, 624013, 624025) Materials”, “624068)” for “Reagents”

Assay [1] has as its system Saccharomyces cerevisiae W303. As to the kind of experiment: Secondary S. cerevisiae inhibition in glycerol media (OD600). It counts as cell-based. The conditions noted are these: for IC50: Saccharomyces cerevisiae.
Excerpt: as §1, §2
Clear, flat bottom, black 384-well plates (Corning Catalog no. 3712BC; Lot no. 35808016); Amphotericin B (Sigma Catalog no. A2411) 15 mM stock solution in DMSO; Pen/Strep (Gibco Catalog no. 10378-016; Lot no21040170) 100× in PBS.
Synthetic defined growth medium. Complete Supplement Mixture; (Sunrise Science, Catalog No. 1001-100); Yeast Nitrogen Base without ammonium sulfate (MP Biomedicals, Catalog No. 4027-012); Glycerol (Sigma Catalog No. G-9012). • Prepare medium by dissolving 0.79 g Complete Supplement Mixture and 1.7 g Yeast Nitrogen Base in 800 mL water. • Add 20 mL of glycerol. Adjust final volume to 1000 mL. Filter sterilize.
Fungal Inoculum. Test Strains: C. glabrata (ATCC 2001) and Saccharomyces cerevisiae W303. • Inoculate 100 μL of yeast from cryopreserved stock into 250 mL shaker flask containing 20 mL growth medium. Shake at 30° C. overnight (about 16 hours). • Read OD 600 of 1 mL of fungal culture in a cuvette using a standard optical density reader (Eppendorf BioPhotometer Plus), with growth medium as a background blank. • Dilute to desired volume of fungal inoculum to produce an OD600 reading of 0.005 (S. cerevisiae) or 0.004 (C. glabrata).
as §3

The test system of the next assay is Candida albicans CaCi-17. Briefly: Primary assay: C. albicans CaCi-17 growth inhibition (Alamar Blue). The assay is classed as cell-based. The conditions noted are these: for IC50: Candida albicans. On the technique in general: The colour change of resazurin is a common sign of viable cells or microbes.
The subject of assay [2] is Saccharomyces cerevisiae W303. Briefly: Secondary S. cerevisiae inhibition in glucose media (OD600). The settings on record: Saccharomyces cerevisiae. The assay is classed as cell-based.
Excerpt: as §1, §2, §3, §4, §5, §6
as §3, with “read. 4.5.” for “read.”, “Mitochondrial Disruption” for “Glucose”, “Assay” for “Assay Protocol”, “No. 624062” for “623971, 623967, 624013, 624025) Materials”, “624068)” for “Reagents”

Another assay relates to Candida albicans CaCi-2. As to the kind of experiment: Primary assay: C. albicans CaCi-2 growth inhibition (Alamar Blue). The assay is classed as cell-based. The conditions noted are these: for IC50: Candida albicans.
Assay [3] deals with S. cerevisiae cytochrome bc1 complex (Saccharomyces cerevisiae, UniProt P00163). The settings on record: cited from earlier work.

As for `CCOC(=O)N1C(=O)C2(CCCCC2)N(c2ccc(F)cc2)C1=S` [CID 56604860, Ethyl 1-(4-fluorophenyl)-4-oxo-2-thioxo-1,3-diazaspiro[4.5]decane-3-carboxylate], the IC50 – broadly, the concentration that gives 50% inhibition – in the assay on C. glabrata (ATCC 2001) (ATCC2001, read-out: Growth inhibition of C. glabrata on glucose IC50) is greater than 3 µM; in assay [1] (W303, read-out: Growth inhibition of S. cerevisiae on glycerol IC50), 0.004 µM; with Candida albicans CaCi-17 (CACI17, read-out: C. albicans CaCi-17 growth inhibition IC50), 1 µM; in assay [2] (W303, read-out: Growth inhibition of S. cerevisiae on glucose IC50), greater than 3 µM. Further, the “Reduction in potency when glucose is available instead of glycerol, S. cerevisiae” value in assay [1] was “greater than 250 fold”. The “Fold Selective (Glucose IC50/Glycerol IC50), S. cerevisiae” value in assay [1] (Table 13) is recorded as greater than 750x. For the same compound, in the assay on Candida albicans CaCi-17 (Table 12), the “Fold Selective (Anti-target IC50/Target IC50), fibroblast toxicity vs CaCi-17 growth inhibition” value is given as greater than 37x. The “Fold Selective (Anti-target IC50/Target IC50), fibroblast toxicity vs CaCi-2 growth inhibition” value in the assay on Candida albicans CaCi-2 (Table 12) is given as greater than 650x.
As to `C/C=C/C1[C@H]2C[C@@H](C)CC[C@@H]2C(C)=C[C@H]1C(=O)c1c(O)c(-c2ccc(O)cc2)c[nH]c1=O` (stereo partly shown) [ilicicolin H, reference compound], the IC50 with C. glabrata (ATCC 2001) (ATCC2001, figure legends and Tables 9, 10, 13, AID 623967, read-out: Growth inhibition of C. glabrata on glucose IC50) was greater than 3 µM; in assay [1] (W303, figure legends and Tables 9, 10, 13, AID 623969, read-out: Growth inhibition of S. cerevisiae on glycerol IC50), 0.03 µM; in assay [3] (read-out: IC50, purified S. cerevisiae cytochrome bc1 complex, studies by Trumpower et al.), 0.003 µM; with Candida albicans CaCi-17 (CACI17, Tables 9, 10, 12, AID 623897, read-out: C. albicans CaCi-17 growth inhibition IC50), greater than 3 µM; in assay [2] (W303, figure legends and Tables 9, 10, 13, AID 623971, read-out: Growth inhibition of S. cerevisiae on glucose IC50), greater than 3 µM; in the assay with Candida albicans CaCi-2 (CACI2, Tables 9, 10, 12, AID 623899, read-out: C. albicans CaCi-2 growth inhibition IC50), greater than 3 µM. For the same compound, in assay [3] (biochemical assays with purified proteins, literature), the “Selectivity for S. cerevisiae (fungal) bc1 complex over bovine bc1 complex” value was 100 fold.
Consider `CCOC(=O)N1C(=O)C2(CCCCC2)N(c2cccc(C)c2)C1=S` [compound 56604823], for which the IC50 in the assay with C. glabrata (ATCC 2001) (ATCC2001, Table 8, n = 3, glucose media, 48 hours, tested up to 3 μM, read-out: Growth Inhibition Activity, IC50 (μM), C. glabrata (n = 3) On glucose) is greater than 3 µM; in assay [1] (W303, Table 8, n = 3, glycerol media, 48 hours, tested up to 3 μM, read-out: Growth Inhibition Activity, IC50 (μM), S. cerevisiae (n = 3) On glycerol), 0.019 µM; with Candida albicans CaCi-17 (CACI17, Table 4, n = 3, 48 hours, tested up to 26 μM, read-out: Growth Inhibition Activity, IC50 (μM), C. albicans (n = 3) CaCi-17), 8.2 µM; in assay [2] (W303, Table 8, n = 3, glucose media, 48 hours, tested up to 3 μM, read-out: Growth Inhibition Activity, IC50 (μM), S. cerevisiae (n = 3) On glucose) it was greater than 3 µM; in the assay on Candida albicans CaCi-2 (CACI2, Table 4, n = 3, 48 hours, tested up to 26 μM, read-out: Growth Inhibition Activity, IC50 (μM), C. albicans (n = 3) CaCi-2) it was 0.2 µM.
Consider `CCOC(=O)N1C(=O)C2(CCCCC2)N(c2ccc(C)cc2)C1=S` [compound 3889161], for which the IC50 in the assay with C. glabrata (ATCC 2001) (ATCC2001, 48 h, read-out: Growth Inhibition Activity, IC50 (μM), C. glabrata (n = 3) On glucose) was greater than 3 µM; in assay [1] (W303, 48 h, read-out: Growth Inhibition Activity, IC50 (μM), S. cerevisiae (n = 3) On glycerol) it was 0.011 µM; with Candida albicans CaCi-17 (CACI17, 48 h, read-out: Growth Inhibition Activity, IC50 (μM), C. albicans (n = 3) CaCi-17), 8.5 µM; in assay [2] (W303, 48 h, read-out: Growth Inhibition Activity, IC50 (μM), S. cerevisiae (n = 3) On glucose), greater than 3 µM; with Candida albicans CaCi-2 (CACI2, 48 h, read-out: Growth Inhibition Activity, IC50 (μM), C. albicans (n = 3) CaCi-2) it was 0.3 µM.
